# Source: ChEMBL document CHEMBL1201862, “PubChem BioAssay data set” (2004)
# Active and inactive are the calls of the source. No stated cut-off is given here; in the data, actives have a measured IC50 and inactives only a lower limit.
# Target: Envelope glycoprotein gp160 (Human immunodeficiency virus 1, UniProt Q6QLK5)
# Assay: cell-free HIV fusion peptide-binding blockers – biochemical, uHTS, fluorescence dequenching, […] (AID 1986)
# Sequence of Envelope glycoprotein gp160 (Q6QLK5 whole entry, the tested form may be a part): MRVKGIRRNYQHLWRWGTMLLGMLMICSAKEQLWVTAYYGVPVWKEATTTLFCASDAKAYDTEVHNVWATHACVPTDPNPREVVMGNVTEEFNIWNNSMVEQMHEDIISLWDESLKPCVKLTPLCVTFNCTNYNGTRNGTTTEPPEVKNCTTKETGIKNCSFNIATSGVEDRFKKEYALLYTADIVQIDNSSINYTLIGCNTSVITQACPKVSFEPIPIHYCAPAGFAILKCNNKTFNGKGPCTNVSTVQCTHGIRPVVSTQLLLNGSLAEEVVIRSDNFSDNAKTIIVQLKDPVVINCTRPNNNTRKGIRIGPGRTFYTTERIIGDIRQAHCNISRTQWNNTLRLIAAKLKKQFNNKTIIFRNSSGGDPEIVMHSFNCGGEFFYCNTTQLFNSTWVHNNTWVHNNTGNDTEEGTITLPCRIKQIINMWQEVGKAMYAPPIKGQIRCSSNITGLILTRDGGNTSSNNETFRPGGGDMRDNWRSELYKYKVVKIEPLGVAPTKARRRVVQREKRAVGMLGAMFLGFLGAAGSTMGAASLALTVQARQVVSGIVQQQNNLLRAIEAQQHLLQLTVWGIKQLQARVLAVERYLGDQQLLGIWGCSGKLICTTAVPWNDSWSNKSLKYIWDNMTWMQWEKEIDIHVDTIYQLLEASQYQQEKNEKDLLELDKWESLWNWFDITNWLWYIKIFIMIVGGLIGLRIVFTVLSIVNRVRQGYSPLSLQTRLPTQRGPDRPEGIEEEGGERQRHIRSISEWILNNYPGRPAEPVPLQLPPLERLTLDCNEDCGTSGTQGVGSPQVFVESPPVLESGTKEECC
row,Compound,IC50
1,Cc1ccc(S(=O)(=O)NC2=NC(=O)/C(=C/c3cc([N+](=O)[O-])ccc3O)S2)cc1,13.5 µM (active)
2,O=C(Nc1ccc(Br)cc1C(=O)O)c1ccc2c(c1)C(=O)N(Cc1ccccc1)C2=O,13.5 µM (active)
3,CCc1nnc(NS(=O)(=O)c2ccc(N/C=C(\C=O)c3nc4cc(Cl)ccc4o3)cc2)s1,19.7 µM (active)
4,Cc1cc(/C=c2\sc3nc4ccccc4n3c2=O)c(C)n1-c1ccc(C(=O)O)cc1,25.8 µM (active)
